{"source": "ChEMBL document CHEMBL3352051", "about": "“Isolation, structure determination and cytotoxicity studies of tryptophan alkaloids from an Australian marine sponge Hyrtios sp” (Bioorg Med Chem Lett, 2014)", "key": {"LNCaP [1]": {"test_system": "LNCaP", "test": "Cytotoxicity against human LNCAP cells after 72 hrs by Alamar Blue assay", "format": "functional, cell-based"}, "NFF": {"test_system": "NFF", "test": "Cytotoxicity against human NFF cells after 72 hrs by Alamar Blue assay", "format": "cell-based"}, "LNCaP [2]": {"test_system": "LNCaP", "test": "Selectivity index, ratio of IC50 for human NFF cells to IC50 for human LNCaP cells", "format": "functional"}, "MCF7": {"test_system": "MCF7", "test": "Antiproliferative activity against human MCF7 cells", "format": "functional, cell-based"}, "Malme-3M": {"test_system": "Malme-3M", "test": "Antiproliferative activity against human MALME-3M cells", "format": "functional, cell-based"}, "[3]": {"test": "Antiproliferative activity against human OVCAR3 cells", "format": "functional, cell-based", "conditions": "OVCAR-3"}}, "data": [{"compound": "O=C1c2ccccc2-n2c1c1[nH]c3ccccc3c1cc2=O", "values": [{"measurement": "IC50", "setting": "LNCaP [1]", "result": 22.9, "unit": "µM"}, {"measurement": "IC50", "setting": "NFF", "result": 32.1, "unit": "µM"}, {"measurement": "Ratio IC50", "setting": "LNCaP [2]", "result": 1.4}]}, {"compound": "O=C(O)c1ccccc1-n1ccc2c([nH]c3ccccc32)c1=O", "values": [{"measurement": "IC50", "setting": "LNCaP [1]", "result": 44.9, "unit": "µM"}, {"measurement": "IC50", "setting": "NFF", "result": 47.6, "unit": "µM"}, {"measurement": "Ratio IC50", "setting": "LNCaP [2]", "result": 1.06}]}, {"compound": "COc1cccc2c1C(=O)c1c(O)c3c(c(O)c1C2=O)C[C@@](O)(C(=O)CO)C[C@@H]3O[C@H]1C[C@H](N)[C@H](O)[C@H](C)O1", "note": "[DOXORUBICIN]", "values": [{"measurement": "IC50", "setting": "LNCaP [1]", "result": 0.0135, "unit": "µM"}, {"measurement": "IC50", "setting": "NFF", "result": 0.126, "unit": "µM"}, {"measurement": "Ratio IC50", "setting": "LNCaP [2]", "result": 8.97}]}, {"compound": "O=C1c2ccccc2-[n+]2ccc3c([nH]c4ccccc43)c21", "note": "[FASCAPLYSIN]", "values": [{"measurement": "IC50", "setting": "LNCaP [1]", "result": 0.54, "unit": "µM"}, {"measurement": "IC50", "setting": "NFF", "result": 0.339, "unit": "µM"}, {"measurement": "Ratio IC50", "setting": "LNCaP [2]", "result": 0.63}, {"measurement": "EC50", "setting": "MCF7", "result": 0.14, "unit": "µg/mL"}, {"measurement": "EC50", "setting": "Malme-3M", "result": 0.03, "unit": "µg/mL"}, {"measurement": "EC50", "setting": "[3]", "result": 0.16, "unit": "µg/mL"}]}, {"compound": "O=C(O)c1ccccc1-[n+]1ccc2c(c1)[nH]c1ccccc12.[Cl-]", "note": "[RETICULATATE]", "values": [{"measurement": "IC50", "setting": "LNCaP [1]", "result": 25.9, "unit": "µM"}, {"measurement": "IC50", "setting": "NFF", "result": 19.8, "unit": "µM"}, {"measurement": "Ratio IC50", "setting": "LNCaP [2]", "result": 0.77}]}]}
